From patent publication US10918713B2, “Epitopes from allergen proteins and methods and uses for immune response modulation” (LA JOLLA INSTITUTE FOR ALLERGY AND IMMUNOLOGY, priority 2012, dated 2021)
“And” between values parts separate entries of the source, which are not always exact repeats. Identical values can stand only once.

Tests used:
Assay type in all cases: cell-based, human
[1] = tested on: PBMC from allergic donors; assay: IL-5 ELISPOT with extract-stimulated short-term lines; details: positive donor/peptide response
Protocol: (§1) Spots were counted by computer-assisted image analysis (Zeiss, KS-ELISPOT reader, Munich, Germany).
(§2) Each assay was performed in triplicate. The level of statistical significance was determined with a Student's t-test using the mean of triplicate values of the response against relevant pools or individual peptides versus the response against the DMSO control.

[2] = tested on: PBMC from allergic donors; assay: IFN-γ ELISPOT with extract-stimulated short-term lines; details: positive donor/peptide response
Protocol: as §1, §2

[3] = tested on: PBMC from allergic donors; assay: Dual ELISPOT, total IL-5 and IFN-γ response (SFC); details: sum of IFNg and IL-5
Protocol: as §1, §2

SMILES	Response (SFC/10^6) IL-5 ([1]; one donor per table line)	Response (SFC/10^6) IFNg ([2]; one donor per table line)	Response (SFC/10^6) Total ([3]; one donor per table line)	Response (SFC/10^6) IL-5 ([1]; each table line is one donor)	Response (SFC/10^6) IFNg ([2]; each table line is one donor)	Response (SFC/10^6) Total ([3]; each table line is one donor)
CC(C)C[C@H](NC(=O)[C@H](Cc1ccc(O)cc1)NC(=O)[C@H](C)NC(=O)[C@H](CCC(=O)O)NC(=O)[C@@H](NC(=O)[C@H](C)NC(=O)[C@H](CCCCN)NC(=O)[C@H](Cc1ccccc1)NC(=O)[C@@H](NC(=O)[C@H](CCC(=O)O)NC(=O)[C@H](CO)NC(=O)[C@H](C)N)C(C)C)C(C)C)C(=O)N[C@H](C(=O)N[C@@H](C)C(=O)N[C@@H](Cc1c[nH]cn1)C(=O)O)C(C)C [3324.1584]	207 SFC/10^6 and 890 SFC/10^6 and 97 SFC/10^6	143 SFC/10^6	207 SFC/10^6 and 1033 SFC/10^6 and 97 SFC/10^6	–	–	–
CC(C)C[C@H](NC(=O)[C@H](CC(N)=O)NC(=O)[C@H](CC(=O)O)NC(=O)[C@H](CO)NC(=O)[C@H](CC(=O)O)NC(=O)[C@H](CC(C)C)NC(=O)[C@@H](NC(=O)[C@H](Cc1ccccc1)NC(=O)[C@H](C)NC(=O)[C@H](CCCCN)NC(=O)[C@H](Cc1ccccc1)NC(=O)[C@H](CC(C)C)NC(=O)[C@H](CCCNC(=N)N)NC(=O)[C@H](C)NC(=O)[C@@H]1CCCN1)C(C)C)C(=O)O [3324.1585]	170 SFC/10^6 and 890 SFC/10^6 and 1790 SFC/10^6 and 190 SFC/10^6 and 520 SFC/10^6 and 70 SFC/10^6	1877 SFC/10^6 and 393 SFC/10^6 and 180 SFC/10^6	170 SFC/10^6 and 2767 SFC/10^6 and 1790 SFC/10^6 and 583 SFC/10^6 and 700 SFC/10^6 and 70 SFC/10^6	–	–	–
CC[C@H](C)[C@H](NC(=O)[C@@H](NC(=O)[C@H](CO)NC(=O)[C@H](C)N)C(C)C)C(=O)N1CCC[C@H]1C(=O)N1CCC[C@H]1C(=O)N[C@@H](C)C(=O)N[C@@H](CCCNC(=N)N)C(=O)N[C@@H](CC(C)C)C(=O)N[C@@H](Cc1ccccc1)C(=O)N[C@@H](CCCCN)C(=O)N[C@@H](C)C(=O)N[C@@H](Cc1ccccc1)C(=O)N[C@H](C(=O)N[C@@H](CC(C)C)C(=O)O)C(C)C [3324.1587]	203 SFC/10^6 and 97 SFC/10^6 and 100 SFC/10^6	273 SFC/10^6 and 127 SFC/10^6	273 SFC/10^6 and 330 SFC/10^6 and 97 SFC/10^6 and 100 SFC/10^6	–	–	–
CC[C@H](C)[C@H](NC(=O)[C@H](CC(C)C)NC(=O)[C@H](CC(N)=O)NC(=O)[C@H](CC(=O)O)NC(=O)[C@H](CO)NC(=O)[C@H](CC(=O)O)NC(=O)[C@H](CC(C)C)NC(=O)[C@@H](NC(=O)[C@H](Cc1ccccc1)NC(=O)[C@H](C)NC(=O)[C@@H](N)CCCCN)C(C)C)C(=O)N1CCC[C@H]1C(=O)N[C@@H](CCCCN)C(=O)N[C@H](C(=O)N[C@H](C(=O)O)C(C)C)C(C)C [3324.1588]	123 SFC/10^6 and 947 SFC/10^6 and 57 SFC/10^6	200 SFC/10^6	123 SFC/10^6 and 1147 SFC/10^6 and 57 SFC/10^6	–	–	–
CC[C@H](C)[C@H](NC(=O)[C@H](Cc1ccc(O)cc1)NC(=O)[C@H](CCC(=O)O)NC(=O)[C@H](CC(C)C)NC(=O)[C@H](CO)NC(=O)[C@@H](NC(=O)[C@@H](N)Cc1ccccc1)[C@@H](C)O)C(=O)N[C@@H](CCC(=O)O)C(=O)N[C@@H](C)C(=O)N[C@@H](C)C(=O)N[C@@H](CCCCN)C(=O)N[C@@H](Cc1c[nH]c2ccccc12)C(=O)N[C@@H](CC(C)C)C(=O)N[C@@H](CC(C)C)C(=O)N1CCC[C@H]1C(=O)O [3324.1589]	–	–	–	1433 SFC/10^6 and 203 SFC/10^6	310 SFC/10^6	1743 SFC/10^6 and 203 SFC/10^6
CC[C@H](C)[C@H](NC(=O)[C@H](Cc1ccccc1)NC(=O)[C@H](CC(=O)O)NC(=O)[C@@H](NC(=O)[C@@H](NC(=O)CNC(=O)[C@@H](N)CCC(=O)O)[C@@H](C)O)C(C)C)C(=O)N[C@@H](Cc1ccccc1)C(=O)NCC(=O)N[C@@H](CCC(=O)O)C(=O)N[C@@H](C)C(=O)N[C@@H](CCCNC(=N)N)C(=O)N[C@@H](CO)C(=O)N[C@@H](CC(C)C)C(=O)N[C@@H](Cc1ccc(O)cc1)C(=O)O [3324.1590]	–	–	–	1300 SFC/10^6 and 363 SFC/10^6	397 SFC/10^6	1697 SFC/10^6 and 363 SFC/10^6
CC[C@H](C)[C@H](N)C(=O)N[C@@H](C)C(=O)N[C@@H](Cc1ccccc1)C(=O)N[C@@H](Cc1ccccc1)C(=O)N[C@@H](CCCNC(=N)N)C(=O)N[C@@H](CCCCN)C(=O)N[C@@H](CCC(=O)O)C(=O)N1CCC[C@H]1C(=O)N[C@@H](CC(C)C)C(=O)N[C@@H](CCCCN)C(=O)N[C@@H](CCC(=O)O)C(=O)N[C@@H](CS)C(=O)NCC(=O)NCC(=O)N[C@H](C(=O)O)[C@@H](C)CC [3337.0029]	180 SFC/10^6	77 SFC/10^6	257 SFC/10^6	–	–	–
CSCC[C@H](N)C(=O)N[C@@H](CCCNC(=N)N)C(=O)N[C@@H](CC(N)=O)C(=O)N[C@H](C(=O)N[C@@H](Cc1ccccc1)C(=O)N[C@@H](CC(=O)O)C(=O)N[C@@H](CC(=O)O)C(=O)N[C@H](C(=O)N[C@H](C(=O)N1CCC[C@H]1C(=O)N[C@@H](C)C(=O)N[C@@H](CC(=O)O)C(=O)N[C@@H](Cc1ccccc1)C(=O)N[C@@H](CCCCN)C(=O)N[C@H](C(=O)O)C(C)C)C(C)C)C(C)C)C(C)C [3337.0030]	–	–	–	110 SFC/10^6 and 133 SFC/10^6 and 447 SFC/10^6	103 SFC/10^6 and 460 SFC/10^6	213 SFC/10^6 and 133 SFC/10^6 and 907 SFC/10^6
